A melting point compilation (Tetko et al.; mined from patent text by program, amines drawn as free bases though some values may be those of a salt)

| Compound | melting point [°C] |
| --- | --- |
| CC(=O)Oc1ccc(C(=O)c2ccc(C)c(OC(C)=O)c2)cc1 | 60 to 64 |
| Cc1c(C)c(N2Cc3ccccc3C2)c(C)c2c1OC(C)(C)C2c1ccc(C(C)C)cc1 (stereo not drawn) | 113 to 114 |
| COc1ccc(-n2cnc(-c3cc(OC)cc(OC)c3)c2-c2ccc(OC)c(O)c2)cc1 | 131 to 134 |
| COc1cc(C(=O)O)ccc1Cc1cccc2ccc(NC(=O)CC3CCCC3)cc12 | 248 to 250 |
| CC1(C)COC1(Cn1cncn1)c1ccc(F)cc1 (stereo not drawn) | 110 |
| CCOC(=O)COc1ccc(C(=O)Nc2ccccc2S(=O)(=O)c2ccccc2-c2nnn[nH]2)cc1 | 162 to 163 |
| Cn1nnc2cccc(C(O)c3cccc(F)c3)c21 (stereo not drawn) | 152 |
| N#Cc1ccn(-c2ccc([N+](=O)[O-])cc2F)c1 | 117 to 119 |
| CC1(C)Oc2c(cc(Cl)c3oc(C(=O)O)cc(=O)c23)-c2ccc(S(=O)(=O)O)cc21 | 257 to 259 |
| COc1ccc(Cl)cc1C(=O)NCCc1ccc(CC(C)(C)C(=O)O)cc1 | 138 to 141 |
| O=[N+]([O-])C=C(NCc1cccnc1)N1CCCCC1 | 106 to 108 |
| Cc1cc(-c2cc(C(F)(F)F)n3cnc(-c4ccncc4)c3n2)ccc1C(F)(F)F | 225 |
| CCOC(=O)C1=C(C)NC(N=CN(C)C)=C(C(=O)OCC)C1c1cccc(Cl)c1 (stereo not drawn) | 150 |
| O=C(O)CC[C@H]1O[C@@H](c2ccccc2Cl)c2cc(Cl)ccc2N(Cc2ccccc2)C1=O (relative stereo) | 135 to 137 |
| COC(=O)CN1C(=O)c2ccccc2Nc2ccc(OCc3cccc4ccccc34)cc21 | 85 to 92 |
| COC(=O)[C@@H]1CCCN1S(=O)(=O)c1ccc(Cl)c(COc2cccc3cc(C(F)(F)F)c(C)nc23)c1Cl | 165 to 167 |
| CCc1nn(C2CCCC2)c2cc(C(=O)Nc3cccc4ncccc34)ccc12 | 176 to 178 |
| COc1ccc(C(=O)Nc2ccccc2)cc1NC(=S)Nc1cccc(C#N)c1 | 183 to 185 |
| O=C1c2ccccc2N=C(c2ccccc2)C1O (stereo not drawn) | 260 to 262 |
| Nc1c(F)c(F)[nH]c(=O)c1F | 199 to 201 |
| CCOC(=O)CSC1=CCC2C3CCC4=CC(=O)C=CC4(C)C3(F)C(O)CC12C (stereo not drawn) | 144 to 145 |
| CCOC(=O)c1cc2oc3c(n2n1)CCCC3 | 55 to 57 |
| Nc1nc(-c2ccc(CCN3CCN(c4cccc5ccccc45)CC3)cc2)cs1 | 274 to 277 |

| Compound | melting point [°C] |
| --- | --- |
| O=C(O)CCCCCNC(=O)c1cn2c3c(cccc13)CCC2 | 158 to 161 |
| COC(=O)c1ccc2oc(CCCc3cc4cc(C(=O)OC)ccc4o3)cc2c1 | 87 to 88 |
| O=C(NCc1ccc(Cl)cc1)c1cn(CC2CCCO2)c2sc(CN3CCOCC3)cc2c1=O (stereo not drawn) | 191 to 195 |
| CN(c1ccncc1)c1ccccc1C(=O)N1CCCCC1 | 110 to 111 |
| O=C(NCCCCCn1cncn1)c1ccc(Cl)s1 | 79 to 81 |
| C[C@@H](NC(=O)Nc1ccc(C(C)(C)C)cc1)c1ccc(NS(C)(=O)=O)c(C#C[Si](C)(C)C)c1 | 118 to 120 |
| COC(=O)C(=O)c1ccc(OCCSc2ccccc2)cc1 | 49 to 51 |
| CCOC(=O)c1nc2ccc(OC)cc2n(C)c1=O | 166 |
| CC(O)(Cc1cncs1)c1ccc(Cl)cc1Cl (stereo not drawn) | 164 |
| CCCCCCCCCCC(O)C[N+]1([O-])CCOCC1 (stereo not drawn) | 151 to 152 |
| CC1(C)C(C#CC(=O)OCC(Cl)(Cl)Cl)C1C(=O)OC(C#N)c1cccc(Oc2ccccc2)c1 (stereo not drawn) | 101 |
| O=c1nc(N2CCC=C(c3ccccc3)C2)sc2ncccc12 | 167 to 169 |
| COc1ccc(C(=O)Nc2cccc(C3(C#N)CCCC3)c2)cc1OC | 59 to 61 |
| CC(C)c1c(C(=O)Nc2ccc(O)cc2)c(-c2ccccc2)c(-c2ccc(F)cc2)n1CC[C@@H]1C[C@@H](O)CC(=O)O1 | 130 to 133 |
| NC(=O)/C=C1/c2cc(F)ccc2CC1O[N+](=O)[O-] (stereo not drawn) | 162 to 163 |
| CCOC(=O)CC[C@H](NC(=O)c1ccc(C=Cc2cnc3nc(NC(C)=O)nc(O)c3c2)cc1)C(=O)OCC | > 200 |
| O=C(O)c1cn(C2CC2)c2nc(N3CCC(c4ccccn4)C3)c(F)cc2c1=O (stereo not drawn) | 203 to 204 |
| C[C@H](N)c1nc2c(C(F)(F)F)cccc2c(O)c1C(=O)Nc1nccs1 | 270 |
| O=C(NCCc1c[nH]cn1)c1[nH]c2ccc(Cl)cc2c1S(=O)(=O)c1ccccc1 | 220 to 222 |
| COC(=O)C(=CN(C)C)N(C)c1nccc(-c2ccccc2)n1 | 101 |
| COc1ccc(C2CCCN(C)C2)c2c1NC(=O)C2 (stereo not drawn) | 170 |
| Cc1ccc(C(=S)NCCCCCCCNC(=S)c2ccc(C)cc2)cc1 | 181 to 182 |
| COc1cc(O)ccc1[N+](=O)[O-] | 142 |

| Compound | melting point [°C] |
| --- | --- |
| Clc1ccc(N2CCN(Cc3n[nH]c4c(Cl)cccc34)CC2)nc1 | 150 to 152 |
| CCOC(=O)Nc1ccc(C)c(Cl)c1 | 51 to 52 |
| CN(C)CC=Cc1ccc2c(c1)CCN2C(=O)c1ccc(-c2ccccc2)cc1 | 174 to 176 |
| Cc1c(-c2cc(F)cc(C(F)(F)F)c2)ccc(N)c1C#N | 96 to 97 |
| COc1ccccc1NC(=O)Nc1nc(NC(CC(=O)O)c2ccccc2)nc(Oc2ccc3ccccc3c2)n1 (stereo not drawn) | 149 |
| O=C(NCCCCc1ccccc1)OC1CCN(C(=O)OC2CCN(C(=O)Oc3ccc(Oc4ccccc4)cc3)CC2)CC1 | 50 to 60 |
| CCCc1nc2cnc3cc(C)ccc3c2o1 | 65 to 68 |
| Cc1nnc(-c2cn3c4c(cccc24)CCC3)o1 | 70 to 72 |
| C=C(C)c1cc(CC)n(-c2ccc([N+](=O)[O-])cc2)n1 | 61 to 63 |
| CC(O)=C(C#N)C(=O)Nc1ccc(S(C)(=O)=O)cc1 | 205 to 206 |
| Cc1cccc2nc(C(F)(F)F)n(C3CCC(=O)NC3=O)c(=O)c12 (stereo not drawn) | 308 to 310 |
| O=C1CCC(N2Cc3cc(CNC(=O)Nc4cc(C(F)(F)F)ccc4Cl)ccc3C2=O)C(=O)N1 (stereo not drawn) | 240 to 242 |
| COc1cc(C(=O)N2Cc3ccc(C(=O)NCc4ccc(C)cc4)n3Cc3ccccc32)ccc1-c1ccccc1C | 179 to 180 |
| Cc1nc2ncnn2c(O)c1F | 273 |
| COc1nc(NC(=O)NS(=O)(=O)CC(C)Cl)nc(OC)n1 (stereo not drawn) | 139 to 141 |
| COc1ccc(COc2c(O)cc3c(c2Cl)CCN(C(=O)OC(C)(C)C)CC3c2ccc(O)cc2)cc1 (stereo not drawn) | 190 to 192 |
| O=C(NCc1ccc(Cl)cc1)c1cnc2c(F)cc(Br)cc2c1 | 254 to 255 |
| CC1=C(C(=O)OC(C)C)C(c2cccc([N+](=O)[O-])c2)C(C(=O)OC2CN(C(c3ccccc3)c3ccccc3)C2)=C(N)N1 (stereo not drawn) | 95 to 98 |
| O=C(O)CCCCCCCCc1ccco1 | 31 to 32 |
| O=C(C(=O)N(CC(F)(F)F)S(=O)(=O)C(F)(F)F)N(CC(F)(F)F)S(=O)(=O)C(F)(F)F | 43 to 45 |
| O=C(O)c1cn(C2CC2)c2c(F)c(N3CCOC(CN4CCNCC4)C3)c(F)cc2c1=O (stereo not drawn) | 260 |
| CC[C@H](C)[C@H](NC(C)=O)C(=O)N[C@H](C(=O)N[C@@H](CC1CCCCC1)[C@@H](O)[C@@H](O)CC(C)C)[C@@H](C)CC | 247 to 248 |
